Results reported in PMC6152004 (Molecules : A Journal of Synthetic Chemistry and Natural …, 2017).
Like-named read-outs stand apart in the source and are kept apart here.

How the values were obtained:
[1] = molecular target: T1, human blood acetylcholinesterase (AChE) (Homo sapiens, UniProt P22303); assay: AChE inhibition, modified Ellman's method, red blood cell lysate; type: biochemical
T1 construct: Red blood cell lysate was used as a source of AChE and human plasma as a source of BChE; from tissue; host or cells: human erythrocytes (lysate) from freshly drawn blood of healthy volunteers
T1 sequence (P22303 32-617 isoform P22303-2 limits assumed): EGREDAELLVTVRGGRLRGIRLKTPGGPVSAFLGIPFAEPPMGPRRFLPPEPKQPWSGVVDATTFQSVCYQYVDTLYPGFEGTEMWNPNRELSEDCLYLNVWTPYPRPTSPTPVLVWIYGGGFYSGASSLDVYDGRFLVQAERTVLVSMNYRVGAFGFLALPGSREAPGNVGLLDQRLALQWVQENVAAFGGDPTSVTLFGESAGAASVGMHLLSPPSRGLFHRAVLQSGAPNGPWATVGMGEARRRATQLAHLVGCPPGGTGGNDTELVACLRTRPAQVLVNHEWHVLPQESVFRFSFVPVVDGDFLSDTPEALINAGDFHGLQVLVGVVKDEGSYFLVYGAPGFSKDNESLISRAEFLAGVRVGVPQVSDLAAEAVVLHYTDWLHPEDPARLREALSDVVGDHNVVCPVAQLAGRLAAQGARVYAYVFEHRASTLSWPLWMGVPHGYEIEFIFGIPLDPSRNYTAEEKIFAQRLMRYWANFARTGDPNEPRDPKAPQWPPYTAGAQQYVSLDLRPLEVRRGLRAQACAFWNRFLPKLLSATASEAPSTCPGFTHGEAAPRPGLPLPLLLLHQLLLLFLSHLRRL

[2] = molecular target: human plasma butyrylcholinesterase (BChE) (Homo sapiens, UniProt P06276); assay: biochemical
human plasma butyrylcholinesterase (BChE), sequence (P06276 29-602): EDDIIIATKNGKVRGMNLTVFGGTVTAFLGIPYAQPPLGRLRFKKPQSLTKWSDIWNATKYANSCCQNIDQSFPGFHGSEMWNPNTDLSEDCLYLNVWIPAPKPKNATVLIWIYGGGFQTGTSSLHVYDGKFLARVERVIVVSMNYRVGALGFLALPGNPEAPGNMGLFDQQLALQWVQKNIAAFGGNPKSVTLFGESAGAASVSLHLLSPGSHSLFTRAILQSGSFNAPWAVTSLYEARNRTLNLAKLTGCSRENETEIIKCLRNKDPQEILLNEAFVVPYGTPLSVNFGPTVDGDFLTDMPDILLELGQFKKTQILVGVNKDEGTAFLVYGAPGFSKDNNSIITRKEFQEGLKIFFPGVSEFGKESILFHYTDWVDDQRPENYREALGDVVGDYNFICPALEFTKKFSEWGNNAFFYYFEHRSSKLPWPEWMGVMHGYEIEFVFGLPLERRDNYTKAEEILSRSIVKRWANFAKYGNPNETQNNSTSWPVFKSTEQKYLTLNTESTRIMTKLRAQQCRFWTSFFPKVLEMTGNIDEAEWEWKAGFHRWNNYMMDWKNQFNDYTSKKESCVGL

AChE = conditions: cited from earlier work; for IC50: read-out: AChE IC50
BChE = conditions: read-out: BChE IC50; cited from earlier work
[3] = molecular target: T2, recombinant prolyl oligopeptidase (POP) (Homo sapiens, UniProt P48147); assay: Prolyl oligopeptidase assay, substrate Z-Gly-Pro-p-nitroanilide; type: biochemical
T2 construct: purchased Sigma-Aldrich (Prague, Czech Republic)
T2 sequence (P48147 1-710): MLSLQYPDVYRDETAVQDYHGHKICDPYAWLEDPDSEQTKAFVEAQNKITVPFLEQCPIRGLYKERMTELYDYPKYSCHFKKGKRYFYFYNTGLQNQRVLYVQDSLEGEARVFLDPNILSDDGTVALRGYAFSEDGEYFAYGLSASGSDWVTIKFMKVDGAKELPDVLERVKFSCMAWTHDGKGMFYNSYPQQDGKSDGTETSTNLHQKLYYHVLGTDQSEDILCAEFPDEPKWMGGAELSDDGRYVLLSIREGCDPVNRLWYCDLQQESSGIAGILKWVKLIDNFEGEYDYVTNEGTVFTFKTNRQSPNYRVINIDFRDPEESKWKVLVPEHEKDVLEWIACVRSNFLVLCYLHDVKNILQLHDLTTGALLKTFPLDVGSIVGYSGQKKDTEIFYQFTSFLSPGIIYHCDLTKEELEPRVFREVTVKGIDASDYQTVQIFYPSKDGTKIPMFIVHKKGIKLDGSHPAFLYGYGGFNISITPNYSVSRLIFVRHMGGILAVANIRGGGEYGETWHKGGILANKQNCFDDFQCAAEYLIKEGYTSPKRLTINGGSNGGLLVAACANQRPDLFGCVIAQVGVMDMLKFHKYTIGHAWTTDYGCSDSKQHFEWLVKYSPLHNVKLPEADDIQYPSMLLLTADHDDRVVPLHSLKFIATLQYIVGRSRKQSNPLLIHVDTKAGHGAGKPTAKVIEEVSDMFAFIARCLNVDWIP

[4] = molecular target: T2, recombinant prolyl oligopeptidase (POP); conditions: tested previously; cited from earlier work
[5] = isolated from Fumaria vaillantii, review of Sener and Orhan

Row | Compound | IC50 [1] [µM] | IC50 [2] [µM] | IC50 (AChE) [µM] | further results
1 | COc1cc2c(cc1O)[C@@H]1Cc3cc(OC)c(OC)cc3[C@H](C2)N1C [Compound 7, (–)-norargemonine] | 205 ± 11.7 | > 1000 | – | –
2 | COc1cc2c(cc1O)[C@@H]1Cc3cc4c(cc3[C@H](C2)N1C)OCO4 [(–)-caryachine] | – | – | 19.6 ± 0.4 | –
3 | protopine [Compound 2] | – | – | – | Type of AChE inhibition (AChE): dose-dependent, specific, reversible and competitive AChE inhibitor; IC50 (AChE; [5]): 1.8 µM
4 | COc1cc2c(cc1O)C(Cc1ccc(O)cc1)N(C)CC2 (single isomer, unassigned; (+)) [(+)-N-methylcoclaurine] | – | – | > 220 | IC50 (BChE): 15 ± 1.4 µM
5 | (–)-californidine | – | – | 36.7 ± 0.9 | –
6 | COc1ccc2c(c1OC)CN(C)CCc1cc3c(cc1C(=O)C2)OCO3 [Compound 4, allocryptopine] | 250 ± 25 | 530 ± 28.2 | – | IC50 [3]: > 1000 µM; IC50 (AChE; [5]): 1.3 µM
7 | COc1ccc(C[C@H]2c3cc(O)c(OC)cc3CCN2C)cc1O [(+)-reticuline] | – | – | > 220 | IC50 (BChE): 33.6 ± 3 µM
8 | COc1ccc(CC2c3cc4c(cc3CCN2C)OCO4)c(C=O)c1OC (single isomer, unassigned; (+)) [canadaline, (+)-canadaline] | – | – | 20.1 | –
9 | COc1cc2c(cc1O)[C@@H]1Cc3ccc(OC)c(O)c3[C@H](C2)N1C [Compound 6, (–)-munitagine] | 62.3 ± 5.8 | 837 ± 23 | – | IC50 [3]: 277 ± 31.3 µM
10 | COc1cc2c(cc1OC)[C@@H]1Cc3ccc(OC)c(O)c3[C@H](C2)N1C [Compound 5, (–)-platycerine] | 224 ± 19.6 | > 1000 | – | IC50 [4]: 687 ± 74 µM
11 | COc1cc2c(cc1OC)[C@@H]1Cc3cc(OC)c(OC)cc3[C@H](C2)N1C [Compound 3, (–)-argemonine] | > 1000 | 885 ± 119 | – | IC50 [3]: 337 ± 83.1 µM
